Numbers after ± are expanded uncertainties.
Experiment: xn = mol fraction of the nth substance listed
Conditions: 101 kPa, Liquid; for speed of sound: Sing-around technique in a fixed-path interferometer; for mass density: Vibrating tube method; for viscosity: Capillary tube (Ostwald / Ubbelohde) method

NCCN [ethane-1,2-diamine] + CCCCCCO
Conditions | mass density [kg/m3] | speed of sound [m/s] | viscosity [mPa·s]
293.15 K, x1 = 0.0773 | 824.126 ± 0.39 | 1338.6 ± 1.6 | –
293.15 K, x1 = 0.1231 | 827.205 ± 0.38 | 1348.9 ± 1.6 | –
293.15 K, x1 = 0.1604 | 829.772 ± 0.38 | 1358.1 ± 1.6 | –
293.15 K, x1 = 0.1925 | 831.826 ± 0.37 | 1365.8 ± 1.6 | –
293.15 K, x1 = 0.2525 | 835.69 ± 0.36 | 1381 ± 1.5 | –
293.15 K, x1 = 0.2907 | 837.925 ± 0.35 | 1390.2 ± 1.5 | –
293.15 K, x1 = 0.3942 | 844.247 ± 0.33 | 1417.8 ± 1.5 | –
293.15 K, x1 = 0.5086 | 851.229 ± 0.32 | 1450.5 ± 1.4 | –
293.15 K, x1 = 0.6059 | 857.577 ± 0.3 | 1482.3 ± 1.4 | –
293.15 K, x1 = 0.7125 | 865.791 ± 0.28 | 1522.6 ± 1.4 | –
293.15 K, x1 = 0.81 | 874.361 ± 0.27 | 1569 ± 1.4 | –
293.15 K, x1 = 0.8583 | 879.425 ± 0.26 | 1596.2 ± 1.3 | –
293.15 K, x1 = 0.9028 | 884.825 ± 0.25 | 1623.9 ± 1.3 | –
293.15 K, x1 = 0.945 | 890.109 ± 0.24 | 1652.7 ± 1.3 | –
298.15 K, x1 = 0.0773 | 820.463 ± 0.39 | 1321.6 ± 1.6 | 4.258 ± 0.039
298.15 K, x1 = 0.1213 | – | – | 4.169 ± 0.038
298.15 K, x1 = 0.1231 | 823.489 ± 0.38 | 1331.9 ± 1.6 | –
298.15 K, x1 = 0.1604 | 826.005 ± 0.38 | 1340.9 ± 1.6 | 4.072 ± 0.037
298.15 K, x1 = 0.1925 | 828.015 ± 0.37 | 1348.6 ± 1.6 | 4 ± 0.036
298.15 K, x1 = 0.2525 | 831.807 ± 0.36 | 1363.7 ± 1.5 | 3.832 ± 0.034
298.15 K, x1 = 0.2907 | 833.999 ± 0.35 | 1372.7 ± 1.5 | 3.72 ± 0.033
298.15 K, x1 = 0.3942 | 840.22 ± 0.33 | 1399.9 ± 1.5 | 3.357 ± 0.029
298.15 K, x1 = 0.5086 | 847.107 ± 0.31 | 1432.2 ± 1.4 | 2.926 ± 0.025
298.15 K, x1 = 0.6059 | 853.36 ± 0.3 | 1463.5 ± 1.4 | 2.528 ± 0.021
298.15 K, x1 = 0.7125 | 861.471 ± 0.28 | 1503.1 ± 1.4 | 2.149 ± 0.018
298.15 K, x1 = 0.81 | 869.926 ± 0.27 | 1548.7 ± 1.3 | 1.851 ± 0.015
298.15 K, x1 = 0.8583 | 874.936 ± 0.26 | 1575.4 ± 1.3 | 1.725 ± 0.014
298.15 K, x1 = 0.9028 | 880.277 ± 0.25 | 1602.8 ± 1.3 | 1.619 ± 0.014
298.15 K, x1 = 0.945 | 885.496 ± 0.24 | 1630.9 ± 1.3 | 1.536 ± 0.013
303.15 K, x1 = 0.0773 | 816.783 ± 0.39 | 1304.6 ± 1.6 | 3.578 ± 0.033
303.15 K, x1 = 0.1213 | 819.755 ± 0.38 | 1314.9 ± 1.6 | 3.551 ± 0.033
303.15 K, x1 = 0.1604 | 822.223 ± 0.37 | 1323.9 ± 1.6 | 3.51 ± 0.032
303.15 K, x1 = 0.1925 | 824.193 ± 0.37 | 1331.5 ± 1.6 | 3.452 ± 0.031
303.15 K, x1 = 0.2525 | 827.911 ± 0.36 | 1346.5 ± 1.5 | 3.324 ± 0.03
303.15 K, x1 = 0.2907 | 830.062 ± 0.35 | 1355.4 ± 1.5 | 3.234 ± 0.029
303.15 K, x1 = 0.3942 | 836.182 ± 0.33 | 1382.2 ± 1.5 | 2.91 ± 0.025
303.15 K, x1 = 0.5086 | 842.967 ± 0.31 | 1413.9 ± 1.4 | 2.537 ± 0.022
303.15 K, x1 = 0.6059 | 849.135 ± 0.3 | 1444.7 ± 1.4 | 2.194 ± 0.019
303.15 K, x1 = 0.7125 | 857.138 ± 0.28 | 1483.7 ± 1.4 | 1.88 ± 0.016
303.15 K, x1 = 0.81 | 865.482 ± 0.26 | 1528.5 ± 1.3 | 1.612 ± 0.014
303.15 K, x1 = 0.8583 | 870.432 ± 0.26 | 1554.7 ± 1.3 | 1.506 ± 0.013
303.15 K, x1 = 0.9028 | 875.713 ± 0.25 | 1581.5 ± 1.3 | 1.428 ± 0.012
303.15 K, x1 = 0.945 | 880.874 ± 0.24 | 1609.2 ± 1.3 | 1.336 ± 0.012
308.15 K, x1 = 0.0773 | 813.087 ± 0.39 | 1287.8 ± 1.6 | 3.066 ± 0.028
308.15 K, x1 = 0.1213 | 816.005 ± 0.38 | 1298.2 ± 1.6 | 3.025 ± 0.028
308.15 K, x1 = 0.1604 | 818.427 ± 0.37 | 1307 ± 1.6 | 2.971 ± 0.027
308.15 K, x1 = 0.1925 | 820.356 ± 0.37 | 1314.6 ± 1.6 | 2.923 ± 0.027
308.15 K, x1 = 0.2525 | 824 ± 0.36 | 1329.3 ± 1.5 | 2.814 ± 0.025
308.15 K, x1 = 0.2907 | 826.113 ± 0.35 | 1338.1 ± 1.5 | 2.737 ± 0.024
308.15 K, x1 = 0.3942 | 832.134 ± 0.33 | 1364.6 ± 1.5 | 2.479 ± 0.022
308.15 K, x1 = 0.5086 | 838.821 ± 0.31 | 1395.8 ± 1.4 | 2.174 ± 0.019
308.15 K, x1 = 0.6059 | 844.903 ± 0.3 | 1426.1 ± 1.4 | 1.892 ± 0.016
308.15 K, x1 = 0.7125 | 852.798 ± 0.28 | 1464.4 ± 1.4 | 1.62 ± 0.014
308.15 K, x1 = 0.81 | 861.03 ± 0.26 | 1508.5 ± 1.3 | 1.404 ± 0.012
308.15 K, x1 = 0.8583 | 865.917 ± 0.26 | 1534.1 ± 1.3 | 1.316 ± 0.012
308.15 K, x1 = 0.9028 | 871.143 ± 0.25 | 1560.6 ± 1.3 | 1.241 ± 0.011
308.15 K, x1 = 0.945 | 876.241 ± 0.24 | 1587.7 ± 1.3 | 1.18 ± 0.011
313.15 K, x1 = 0.0773 | 809.362 ± 0.39 | 1271.1 ± 1.6 | –
313.15 K, x1 = 0.1213 | 812.228 ± 0.38 | 1281.6 ± 1.6 | –
313.15 K, x1 = 0.1604 | 814.602 ± 0.37 | 1290.4 ± 1.6 | –
313.15 K, x1 = 0.1925 | 816.496 ± 0.37 | 1297.9 ± 1.6 | –
313.15 K, x1 = 0.2525 | 820.069 ± 0.36 | 1312.4 ± 1.5 | –
313.15 K, x1 = 0.2907 | 822.144 ± 0.35 | 1321.1 ± 1.5 | –
313.15 K, x1 = 0.3942 | 828.065 ± 0.33 | 1347 ± 1.5 | –
313.15 K, x1 = 0.5086 | 834.657 ± 0.31 | 1377.9 ± 1.4 | –
313.15 K, x1 = 0.6059 | 840.646 ± 0.3 | 1407.5 ± 1.4 | –
313.15 K, x1 = 0.7125 | 848.435 ± 0.28 | 1445.3 ± 1.4 | –
313.15 K, x1 = 0.81 | 856.554 ± 0.26 | 1488.5 ± 1.3 | –
313.15 K, x1 = 0.8583 | 861.384 ± 0.26 | 1513.6 ± 1.3 | –
313.15 K, x1 = 0.9028 | 866.55 ± 0.25 | 1539.7 ± 1.3 | –
313.15 K, x1 = 0.945 | 871.587 ± 0.24 | 1566.3 ± 1.3 | –
